In the assay the target is T1, full-length human PKCι (Homo sapiens, UniProt P41743).
T1 construct: Recombinant, full-length human PKCι expressed in Sf21 insect cells is also commercially available; purchased; host or cells: Sf21 insect cells
T1 sequence (P41743 1-596): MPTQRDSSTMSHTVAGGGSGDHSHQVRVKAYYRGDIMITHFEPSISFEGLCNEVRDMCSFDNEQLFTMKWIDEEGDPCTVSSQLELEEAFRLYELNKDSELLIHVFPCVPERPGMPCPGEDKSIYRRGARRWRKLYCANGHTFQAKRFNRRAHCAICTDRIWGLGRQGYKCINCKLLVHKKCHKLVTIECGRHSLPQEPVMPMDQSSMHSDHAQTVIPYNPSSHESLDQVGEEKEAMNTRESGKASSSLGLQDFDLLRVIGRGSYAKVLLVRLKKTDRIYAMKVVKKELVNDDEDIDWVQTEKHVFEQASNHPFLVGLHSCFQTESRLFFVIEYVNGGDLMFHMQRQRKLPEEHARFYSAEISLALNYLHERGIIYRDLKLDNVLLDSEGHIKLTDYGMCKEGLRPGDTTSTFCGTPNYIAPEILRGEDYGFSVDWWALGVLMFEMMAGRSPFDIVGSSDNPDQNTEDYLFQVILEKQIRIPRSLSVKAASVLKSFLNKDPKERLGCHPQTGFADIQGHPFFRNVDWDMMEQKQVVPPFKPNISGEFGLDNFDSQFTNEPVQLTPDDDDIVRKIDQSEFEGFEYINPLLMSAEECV
As to the kind of experiment: PKCι IC50 IMAP assay, full-length PKCι at 150 μM ATP. The class given is biochemical. As to conditions: read-out: IC50 in IMAP assay against full length PKCi at 150 μM ATP. The gist of the method: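 IMAP fluorescence polarisation (ex 485/em 530 nm) read-out; % inhibition set from no-compound (0%) and no-enzyme (100%) controls, IC50 from dose-response curve fit. Sf21-expressed full-length enzyme ~15 pM, 100 nM FAM peptide, ATP 150 μM (5× KM^APP), 60 min at RT.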

Some results are limits rather than exact numbers.

For the compound `COc1ccc(CC(=O)Nc2cc(-c3nc(N[C@@H]4CCNC4)c4ccncc4n3)ccn2)cc1` [Example 335, 2-(4-Methoxy-phenyl)-N-{4-[4-((R)-pyrrolidin-3-ylamino)-pyrido[3,4-d]pyrimidin-2-yl]-pyridin-2-yl}-acetamide], the concentration for half-maximal inhibition (IC50) fell in the range of 100 to 1000 nM. On to `CC1(C)CN(c2nc(-c3ccnc(Nc4nc(F)c(C5CC5)cc4F)c3)nc3cncc(C4CC4)c23)CCN1` [Example 2125, (5-Cyclopropyl-3,6-difluoro-pyridin-2-yl)-{4-[5-cyclopropyl-4-(3,3-dimethyl-piperazin-1-yl)-pyrido[3,4-d]pyrimidin-2-yl]-pyridin-2-yl}-amine], for which the IC50 was less than 100 nM. Turning to `Fc1cnc(Nc2cc(-c3nc(N4CCNCC4)c4c(C5CCC5)cncc4n3)ccn2)c(F)c1` [Example 783, [4-(5-Cyclobutyl-4-piperazin-1-yl-pyrido[3,4-d]pyrimidin-2-yl)-pyridin-2-yl]-(3,5-difluoro-pyridin-2-yl)-amine], the IC50 is less than 100 nM. As for `COc1cccc(CC(=O)Nc2cc(-c3nc(N4CCNCC4)c4c(OC)cncc4n3)ccn2)c1` [Example 372, 2-(3-Methoxy-phenyl)-N-[4-(5-methoxy-4-piperazin-1-yl-pyrido[3,4-d]pyrimidin-2-yl)-pyridin-2-yl]-acetamide], the IC50 was less than 100 nM. For the compound `CC1(C)CN(c2nc(-c3ccnc4[nH]c(C(C)(C)C)cc34)nc3cncc(C4CC4)c23)CCN1` [Example 2002, 2-(2-tert-Butyl-1H-pyrrolo[2,3-b]pyridin-4-yl)-5-cyclopropyl-4-(3,3-dimethyl-piperazin-1-yl)-pyrido[3,4-d]pyrimidine], the IC50 is less than 100 nM.

Turning to `COCc1ccccc1Nc1cc(-c2nc(N3CCNCC3)c3c(C4CC4)cncc3n2)ccn1` [Example 517, [4-(5-Cyclopropyl-4-piperazin-1-yl-pyrido[3,4-d]pyrimidin-2-yl)-pyridin-2-yl]-(2-methoxymethyl-phenyl)-amine], the half-maximal inhibitory concentration (IC50) is 100 to 1000 nM. As to `Fc1ccc(F)c(Nc2cc(-c3nc(N4CCNCC4)c4c(C5CC5)cncc4n3)ccn2)c1Cl` [Example 635, (2-Chloro-3,6-difluoro-phenyl)-[4-(5-cyclopropyl-4-piperazin-1-yl-pyrido[3,4-d]pyrimidin-2-yl)-pyridin-2-yl]-amine], the IC50 was less than 100 nM. Next, `FC(F)(F)c1ccnc(Nc2cc(-c3nc(N4CCNCC4)c4c(Cl)cncc4n3)ccn2)c1` [Example 259, [4-(5-Chloro-4-piperazin-1-yl-pyrido[3,4-d]pyrimidin-2-yl)-pyridin-2-yl]-(4-trifluoromethyl-pyridin-2-yl)-amine]: less than 100 nM; `OC1CCN(c2nc(-c3ccnc4[nH]c(C5(c6ccccc6)CC5)cc34)nc3cncc(C4CC4)c23)CC1` [Example 1244, 1-{5-Cyclopropyl-2-[2-(1-phenyl-cyclopropyl)-1H-pyrrolo[2,3-b]pyridin-4-yl]-pyrido[3,4-d]pyrimidin-4-yl}-piperidin-4-ol]: less than 100 nM. `c1cc(-c2nc(N3CCN4CCC[C@@H]4C3)c3ccncc3n2)ccn1` [Example 64, 4-{4-[(8aR)-octahydropyrrolo-[1,2-a]piperazin-2-yl]pyrido[3,4-d]-pyrimidin-2-yl}-pyridine]: the IC50 was 10000 to 40000 nM. On to `Fc1ccc(Nc2cc(-c3nc(N4CCNCC4)c4c(C5CC5)cncc4n3)ccn2)cc1F` [Example 599, [4-(5-Cyclopropyl-4-piperazin-1-yl-pyrido[3,4-d]pyrimidin-2-yl)-pyridin-2-yl]-(3,4-difluoro-phenyl)-amine], for which the IC50 is less than 100 nM. In the case of `N#Cc1ccc(CC(=O)Nc2cc(-c3nc(N[C@@H]4CCNC4)c4ccncc4n3)ccn2)cc1` [Example 349, 2-(4-Cyano-phenyl)-N-{4-[4-((R)-pyrrolidin-3-ylamino)-pyrido[3,4-d]pyrimidin-2-yl]-pyridin-2-yl}-acetamide], the IC50 was less than 100 nM. Consider `COc1cncc2nc(-c3ccnc(Nc4cccnc4)c3)nc(N3CCNCC3)c12` [Example 378, [4-(5-Methoxy-4-piperazin-1-yl-pyrido[3,4-d]pyrimidin-2-yl)-pyridin-2-yl]-pyridin-3-yl-amine], for which the IC50 is less than 100 nM. For `Clc1ccnc(Nc2cc(-c3nc(N[C@@H]4CCNC4)c4ccncc4n3)ccn2)c1` [Example 339, {2-[2-(4-Chloro-pyridin-2-ylamino)-pyridin-4-yl]-pyrido[3,4-d]pyrimidin-4-yl}-(R)-pyrrolidin-3-yl-amine], the IC50 is less than 100 nM.

For `CN1CCN(c2nc(-c3ccncc3)nc3cnccc23)CC1` [Example 18, 1-methyl-4-[2-(pyridin-4-yl)-pyrido[3,4-d]-pyrimidin-4-yl]-piperazine], the half-inhibitory concentration (IC50) lay within 10000 to 40000 nM. As for `FC(F)(F)c1ccccc1Nc1cc(-c2nc(N3CCNCC3)c3c(C4CC4)cncc3n2)ccn1` [Example 516, [4-(5-Cyclopropyl-4-piperazin-1-yl-pyrido[3,4-d]pyrimidin-2-yl)-pyridin-2-yl]-(2-trifluoromethyl-phenyl)-amine], the IC50 was less than 100 nM.

On to `Clc1ccccc1-c1cc2c(-c3nc(N4CCNCC4)c4c(C5CCC5)cncc4n3)ccnc2[nH]1` [Example 2204, 2-[2-(2-Chloro-phenyl)-1H-pyrrolo[2,3-b]pyridin-4-yl]-5-cyclobutyl-4-piperazin-1-yl-pyrido[3,4-d]pyrimidine], for which the IC50 was less than 100 nM. As to `c1ccc(Nc2cc(-c3nc(N4CCNCC4)c4c(C5CC5)cncc4n3)ccn2)nc1` [Example 750, [4-(5-Cyclopropyl-4-piperazin-1-yl-pyrido[3,4-d]pyrimidin-2-yl)-pyridin-2-yl]-pyridin-2-yl-amine], the IC50 was less than 100 nM. Take `c1cnc(Nc2cc(-c3nc(N[C@@H]4CCNC4)c4ccncc4n3)ccn2)cn1` [Example 243, {2-[2-(Pyrazin-2-ylamino)-pyridin-4-yl]-pyrido[3,4-d]pyrimidin-4-yl}-(R)-pyrrolidin-3-yl-amine]: the IC50 lay in the range of 1000 to 10000 nM. For the compound `COc1cncc2nc(-c3ccncc3)nc(NC[C@@H](N)[C@H](F)c3ccccc3)c12` [Example 47, N-[(2R,3R)-2-amino-3-fluoro-3-phenylpropyl]-5-methoxy-2-(pyridin-4-yl)pyrido[3,4-d]-pyrimidin-4-amine], the IC50 was less than 100 nM.

With `O=CN[C@H](CNc1nc(-c2ccncc2)nc2cnccc12)Cc1ccccc1` [Example 78, N—[(S)-1-Benzyl-2-(2-pyridin-4-yl-pyrido[3,4-d]pyrimidin-4-ylamino)-ethyl]-formamide], the IC50 was in the range of 1000 to 10000 nM. In the case of `COc1cncc2nc(-c3ccnc(Nc4ccc(C)nc4)c3)nc(N3CCNCC3)c12` [Example 393, [4-(5-Methoxy-4-piperazin-1-yl-pyrido[3,4-d]pyrimidin-2-yl)-pyridin-2-yl]-(6-methyl-pyridin-3-yl)-amine], the IC50 is less than 100 nM.

For `Fc1ccc(Nc2cc(-c3nc(N4CCNCC4)c4c(C5CC5)cncc4n3)ccn2)c(F)c1` [Example 651, [4-(5-Cyclopropyl-4-piperazin-1-yl-pyrido[3,4-d]pyrimidin-2-yl)-pyridin-2-yl]-(2,4-difluoro-phenyl)-amine], the IC50 is less than 100 nM. `FC(F)(F)C1CN(c2nc(-c3ccnc(Cl)c3)nc3cncc(C4CC4)c23)CCN1` (centres unmarked) [Example 624, 2-(2-Chloro-pyridin-4-yl)-5-cyclopropyl-4-(3-trifluoromethyl-piperazin-1-yl)-pyrido[3,4-d]pyrimidine]: the IC50 was 100 to 1000 nM. On to `CN1CCC(N(C)c2nc(-c3ccnc(Nc4c(F)cccc4F)c3)nc3cncc(C4CC4)c23)CC1` [Example 2083, {5-Cyclopropyl-2-[2-(2,6-difluoro-phenylamino)-pyridin-4-yl]-pyrido[3,4-d]pyrimidin-4-yl}-methyl-(1-methyl-piperidin-4-yl)-amine], for which the IC50 was less than 100 nM. `COCc1cc2c(-c3nc(N4CCNCC4)c4c(C5CCC5)cncc4n3)ccnc2[nH]1` [Example 2080, 5-Cyclobutyl-2-(2-methoxymethyl-1H-pyrrolo[2,3-b]pyridin-4-yl)-4-piperazin-1-yl-pyrido[3,4-d]pyrimidine]: the IC50 is less than 100 nM. On to `COc1cncc2nc(-c3ccnc(Nc4cc(Cl)ccn4)c3)nc(N3CCNCC3)c12` [Example 365, (4-Chloro-pyridin-2-yl)-[4-(5-methoxy-4-piperazin-1-yl-pyrido[3,4-d]pyrimidin-2-yl)-pyridin-2-yl]-amine], for which the half-maximal inhibitory concentration (IC50) was less than 100 nM.

Turning to `Cc1cccc(Nc2cc(-c3nc(N4CCNCC4)c4c(C5CC5)cncc4n3)ccn2)c1Cl` [Example 568, (2-Chloro-3-methyl-phenyl)-[4-(5-cyclopropyl-4-piperazin-1-yl-pyrido[3,4-d]pyrimidin-2-yl)-pyridin-2-yl]-amine], the IC50 is less than 100 nM. For `COc1cncc2nc(-c3ccnc(Nc4c(F)cccc4F)c3)nc(N3CCNCC3)c12` [Example 421, (2,6-Difluoro-phenyl)-[4-(5-methoxy-4-piperazin-1-yl-pyrido[3,4-d]pyrimidin-2-yl)-pyridin-2-yl]-amine], the IC50 is less than 100 nM.
